Source: paper PMC5218480 (PLoS ONE, 2017)

System: MV-4-11 cells
Assay: Gene expression microarray analysis (Affymetrix PrimeView) and GSEA
Format: cell-based, human
Design: RFU PODN (11730768_x_at) / Fold change /veh PODN (11730768_x_at) / RFU LINC00158 (11744669_a_at) / Fold change /veh LINC00158 (11744669_a_at) / RFU DUSP10 (11751237_a_at) / Fold change /veh DUSP10 (11751237_a_at) / RFU ID3 (11757404_x_at) / Fold change /veh ID3 (11757404_x_at) / RFU PLEKHG5 (11737974_s_at) / Fold change /veh PLEKHG5 (11737974_s_at) / RFU LRRC4B (11730491_at) / Fold change /veh LRRC4B (11730491_at) / RFU GIMAP4 (11747438_a_at) / Fold change /veh GIMAP4 (11747438_a_at) / RFU KRT8 (11758183_x_at) / Fold change /veh KRT8 (11758183_x_at) / RFU CNN1 (11734310_a_at) / Fold change /veh CNN1 (11734310_a_at) / RFU VPS37D (11726825_at) / Fold change /veh VPS37D (11726825_at) / RFU C10orf10 (11716522_x_at) / Fold change /veh C10orf10 (11716522_x_at) / RFU KIR2DL2 /// KIR2DL4 /// KIR2DL5A /// KIR2DL5B /// KIR2DS1 /// KIR2DS2 /// KIR2DS3 /// KIR2DS4 /// KIR3DL3 /// KIR3DL3 /// KIR3DS1 (11738374_at) / Fold change /veh KIR2DL2 /// KIR2DL4 /// KIR2DL5A /// KIR2DL5B /// KIR2DS1 /// KIR2DS2 /// KIR2DS3 /// KIR2DS4 /// KIR3DL3 /// KIR3DL3 /// KIR3DS1 (11738374_at) / RFU C1QL1 (11718748_at) / Fold change /veh C1QL1 (11718748_at) / RFU TMPRSS4 (11747572_a_at) / Fold change /veh TMPRSS4 (11747572_a_at) / RFU HAMP (11756126_x_at) / Fold change /veh HAMP (11756126_x_at) / RFU RNFT2 (11725882_a_at) / Fold change /veh RNFT2 (11725882_a_at) / RFU NR4A2 (11747474_a_at) / Fold change /veh NR4A2 (11747474_a_at) / RFU ABCC12 (11746883_a_at) / Fold change /veh ABCC12 (11746883_a_at) / RFU TMEM136 (11760407_x_at) / Fold change /veh TMEM136 (11760407_x_at) / RFU CLDN22 /// WWC2 (11732394_at) / Fold change /veh CLDN22 /// WWC2 (11732394_at) / RFU HLA-DPB1 (11760878_x_at) / Fold change /veh HLA-DPB1 (11760878_x_at) / RFU SPINT1 (11716480_a_at) / Fold change /veh SPINT1 (11716480_a_at) / RFU GAP43 (11754022_s_at) / Fold change /veh GAP43 (11754022_s_at) / RFU A4GNT (11735810_at) / Fold change /veh A4GNT (11735810_at) / RFU PRB3 (11715151_x_at) / Fold change /veh PRB3 (11715151_x_at) / RFU TUBB4B (11761932_at) / Fold change /veh TUBB4B (11761932_at) / RFU CAPN14 (11732068_a_at) / Fold change /veh CAPN14 (11732068_a_at) / RFU TMCC2 (11721928_a_at) / Fold change /veh TMCC2 (11721928_a_at) / RFU IRGQ (11745062_a_at) / Fold change /veh IRGQ (11745062_a_at) / RFU FAM174B (11720279_a_at) / Fold change /veh FAM174B (11720279_a_at) / RFU TMPRSS4 (11748680_a_at) / Fold change /veh TMPRSS4 (11748680_a_at) / RFU FAM212B (11763350_a_at) / Fold change /veh FAM212B (11763350_a_at) / RFU PLEKHG5 (11743358_a_at) / Fold change /veh PLEKHG5 (11743358_a_at) / RFU ZSCAN30 (11745921_a_at) / Fold change /veh ZSCAN30 (11745921_a_at) / RFU CMKLR1 (11741424_a_at) / Fold change /veh CMKLR1 (11741424_a_at) / RFU LOC101060620 /// MAPK8IP1 (11723275_at) / Fold change /veh LOC101060620 /// MAPK8IP1 (11723275_at) / RFU SPTSSB (11747773_x_at) / Fold change /veh SPTSSB (11747773_x_at) / RFU PRSS12 (11739890_at) / Fold change /veh PRSS12 (11739890_at) / RFU BIN1 (11741810_x_at) / Fold change /veh BIN1 (11741810_x_at) / RFU WNT11 (11732464_a_at) / Fold change /veh WNT11 (11732464_a_at) / RFU C10orf10 (11716521_a_at) / Fold change /veh C10orf10 (11716521_a_at) / RFU C5orf56 (11738089_at) / Fold change /veh C5orf56 (11738089_at) / RFU CYB561 (11721691_x_at) / Fold change /veh CYB561 (11721691_x_at) / RFU ANKRD19P (11752326_a_at) / Fold change /veh ANKRD19P (11752326_a_at) / RFU OR2T12 /// OR2T33 /// OR2T8 (11738714_s_at) / Fold change /veh OR2T12 /// OR2T33 /// OR2T8 (11738714_s_at) / RFU VCAN (11748164_a_at) / Fold change /veh VCAN (11748164_a_at) / RFU JSRP1 (11732532_at) / Fold change /veh JSRP1 (11732532_at) / RFU KRTAP10-11 (11738290_x_at) / Fold change /veh KRTAP10-11 (11738290_x_at) / RFU MYO3A (11730013_a_at) / Fold change /veh MYO3A (11730013_a_at) / RFU EBF3 (11725865_a_at) / Fold change /veh EBF3 (11725865_a_at) / RFU CAMK2N1 (11719241_x_at) / Fold change /veh CAMK2N1 (11719241_x_at) / RFU C5orf56 (11738088_a_at) / Fold change /veh C5orf56 (11738088_a_at) / RFU OLFML3 (11715873_a_at) / Fold change /veh OLFML3 (11715873_a_at) / RFU LOC100653217 /// NTM (11731650_a_at) / Fold change /veh LOC100653217 /// NTM (11731650_a_at) / RFU MAPK11 (11762145_a_at) / Fold change /veh MAPK11 (11762145_a_at) / RFU FIZ1 (11724087_x_at) / Fold change /veh FIZ1 (11724087_x_at) / RFU OASL (11726364_x_at) / Fold change /veh OASL (11726364_x_at) / RFU SOX15 (11748057_x_at) / Fold change /veh SOX15 (11748057_x_at) / RFU CD79A (11719716_a_at) / Fold change /veh CD79A (11719716_a_at) / RFU HIST1H1D (11736915_at) / Fold change /veh HIST1H1D (11736915_at) / RFU CASKIN2 (11723855_a_at) / Fold change /veh CASKIN2 (11723855_a_at) / RFU LOC730098 (11760151_x_at) / Fold change /veh LOC730098 (11760151_x_at) / RFU OR4N2 (11742367_at) / Fold change /veh OR4N2 (11742367_at) / RFU PRRT2 (11749266_a_at) / Fold change /veh PRRT2 (11749266_a_at) / RFU SNX32 (11753110_a_at) / Fold change /veh SNX32 (11753110_a_at) / RFU CDHR5 (11726645_a_at) / Fold change /veh CDHR5 (11726645_a_at) / RFU RCAN1 (11760418_a_at) / Fold change /veh RCAN1 (11760418_a_at) / RFU FAM167A (11723789_a_at) / Fold change /veh FAM167A (11723789_a_at) / RFU FAM26E (11764081_at) / Fold change /veh FAM26E (11764081_at) / RFU ISYNA1 (11749810_s_at) / Fold change /veh ISYNA1 (11749810_s_at) / RFU ACY1 (11761880_at) / Fold change /veh ACY1 (11761880_at) / RFU 11764098_at / Fold change /veh 11764098_at / RFU SAMD14 (11745864_x_at) / Fold change /veh SAMD14 (11745864_x_at) / RFU NPB (11741838_a_at) / Fold change /veh NPB (11741838_a_at) / RFU TMPRSS6 (11731388_a_at) / Fold change /veh TMPRSS6 (11731388_a_at) / RFU KRTAP10-2 (11738614_at) / Fold change /veh KRTAP10-2 (11738614_at) / RFU ARHGAP8 /// PRR5-ARHGAP8 (11727945_x_at) / Fold change /veh ARHGAP8 /// PRR5-ARHGAP8 (11727945_x_at) / RFU KRTAP5-7 /// NADSYN1 (11734609_at) / Fold change /veh KRTAP5-7 /// NADSYN1 (11734609_at) / RFU RASL12 (11751679_a_at) / Fold change /veh RASL12 (11751679_a_at) / RFU CDKN2B (11736163_a_at) / Fold change /veh CDKN2B (11736163_a_at) / RFU PRF1 (11729649_at) / Fold change /veh PRF1 (11729649_at) / RFU, ZNF638 /// ZNF638-IT1 / Fold change vs veh, ZNF638 /// ZNF638-IT1 / RFU, PANK3 / Fold change vs veh, PANK3 / RFU, SH3YL1 / Fold change vs veh, SH3YL1 / RFU, ZEB2 / Fold change vs veh, ZEB2 / RFU, NRIP1 / Fold change vs veh, NRIP1 / RFU, PTTG1IP / Fold change vs veh, PTTG1IP / RFU, CAPN2 / Fold change vs veh, CAPN2 / RFU, MED14 / Fold change vs veh, MED14 / RFU, SNORA58 / Fold change vs veh, SNORA58 / RFU, C1orf63 / Fold change vs veh, C1orf63 / RFU, LRRFIP1 / Fold change vs veh, LRRFIP1 / RFU, NDUFAF7 / Fold change vs veh, NDUFAF7 / RFU, SLC12A2 / Fold change vs veh, SLC12A2 / RFU, IBTK / Fold change vs veh, IBTK / RFU, ESF1 / Fold change vs veh, ESF1 / Fold change vs veh, TMEM50B / RFU, TAOK1 / Fold change vs veh, TAOK1 / RFU, ACBD3 / Fold change vs veh, ACBD3 / RFU, TMA16 / Fold change vs veh, TMA16 / RFU, RWDD3 / Fold change vs veh, RWDD3 / RFU, BCAT1 / Fold change vs veh, BCAT1 / RFU, EDEM3 / Fold change vs veh, EDEM3 / RFU, TMEM33 / Fold change vs veh, TMEM33 / RFU, WDR75 / Fold change vs veh, WDR75 / RFU, AHCTF1 / Fold change vs veh, AHCTF1 / RFU, TFRC / Fold change vs veh, TFRC / RFU, ZDHHC17 / Fold change vs veh, ZDHHC17 / RFU, NOM1 / Fold change vs veh, NOM1 / RFU, ARL8B / Fold change vs veh, ARL8B / RFU, ZBTB11 / Fold change vs veh, ZBTB11 / RFU, TAMM41 / Fold change vs veh, TAMM41 / RFU, KIAA1704 /// LOC100996395 / Fold change vs veh, KIAA1704 /// LOC100996395 / RFU, ING1 / Fold change vs veh, ING1 / RFU, TRMT61B / Fold change vs veh, TRMT61B / RFU, FUBP3 / Fold change vs veh, FUBP3 / RFU, TP53 / Fold change vs veh, TP53 / RFU, TNKS2 / Fold change vs veh, TNKS2 / RFU, ZFP14 / Fold change vs veh, ZFP14 / RFU, ACTR2 / Fold change vs veh, ACTR2 / RFU, PPP3R1 / Fold change vs veh, PPP3R1 / RFU, PIK3R1 / Fold change vs veh, PIK3R1 / RFU, HNRNPA1 / Fold change vs veh, HNRNPA1 / RFU, RNF170 / Fold change vs veh, RNF170 / RFU, ZNF28 / Fold change vs veh, ZNF28 / RFU, RNGTT / Fold change vs veh, RNGTT / RFU, OGT / Fold change vs veh, OGT / RFU, BRD1 / Fold change vs veh, BRD1 / RFU, MARS / Fold change vs veh, MARS / RFU, ZNF655 / Fold change vs veh, ZNF655 / RFU, FAHD1 / Fold change vs veh, FAHD1 / RFU, BDP1 / Fold change vs veh, BDP1 / RFU, LRRCC1 / Fold change vs veh, LRRCC1 / RFU, ARID1A / Fold change vs veh, ARID1A / RFU, ZNF146 / Fold change vs veh, ZNF146 / RFU, ZNF330 / Fold change vs veh, ZNF330 / RFU, GPN3 / Fold change vs veh, GPN3 / RFU, C9orf123 / Fold change vs veh, C9orf123 / RFU, N4BP2L2 / Fold change vs veh, N4BP2L2 / RFU, ARFIP1 / Fold change vs veh, ARFIP1 / RFU, FAM179B / Fold change vs veh, FAM179B / RFU, BCL10 / Fold change vs veh, BCL10 / RFU, UHRF1BP1L / Fold change vs veh, UHRF1BP1L / RFU, BET1 / Fold change vs veh, BET1 / RFU, CNOT2 / Fold change vs veh, CNOT2 / RFU, ZNF268 / Fold change vs veh, ZNF268 / Fold change vs veh, ZNF507 / RFU, DGCR2 / Fold change vs veh, DGCR2 / RFU, WDSUB1 / Fold change vs veh, WDSUB1 / Fold change vs veh, HSP90B1 /// MIR3652 / RFU, ADSS / Fold change vs veh, ADSS / RFU, GK / Fold change vs veh, GK / RFU, ZNF148 / Fold change vs veh, ZNF148 / RFU, TAF9 / Fold change vs veh, TAF9 / RFU, SLC1A5 / Fold change vs veh, SLC1A5 / RFU, SLMO2 / Fold change vs veh, SLMO2 / RFU, ABCC4 / Fold change vs veh, ABCC4 / RFU, LOC101060439 /// RAP1B / Fold change vs veh, LOC101060439 /// RAP1B / RFU, RFX7 / Fold change vs veh, RFX7 / RFU, GTPBP10 / Fold change vs veh, GTPBP10 / RFU, CNEP1R1 / Fold change vs veh, CNEP1R1 / RFU, BIVM-ERCC5 /// ERCC5 / Fold change vs veh, BIVM-ERCC5 /// ERCC5 / RFU, ILF3 / Fold change vs veh, ILF3 / RFU 11762660_at / Fold change /veh 11762660_at / RFU VCAN (11757783_s_at) / Fold change /veh VCAN (11757783_s_at) / RFU DDX43 (11728927_at) / Fold change /veh DDX43 (11728927_at) / RFU KRT8 (11758188_x_at) / Fold change /veh KRT8 (11758188_x_at) / RFU NKD1 (11759106_at) / Fold change /veh NKD1 (11759106_at) / RFU SRD5A1 (11742802_a_at) / Fold change /veh SRD5A1 (11742802_a_at) / RFU TPSAB1 /// TPSB2 (11721975_s_at) / Fold change /veh TPSAB1 /// TPSB2 (11721975_s_at) / RFU GSTM3 (11746129_a_at) / Fold change /veh GSTM3 (11746129_a_at) / RFU IL23R (11737362_x_at) / Fold change /veh IL23R (11737362_x_at) / RFU TMEM51 (11727254_a_at) / Fold change /veh TMEM51 (11727254_a_at) / RFU PIWIL2 (11732686_x_at) / Fold change /veh PIWIL2 (11732686_x_at) / RFU ORM1 (11744905_x_at) / Fold change /veh ORM1 (11744905_x_at) / RFU CCDC152 (11743942_at) / Fold change /veh CCDC152 (11743942_at) / RFU ECM1 (11717891_a_at) / Fold change /veh ECM1 (11717891_a_at) / RFU IL23R (11748794_a_at) / Fold change /veh IL23R (11748794_a_at) / RFU TNFAIP8L3 (11732012_x_at) / Fold change /veh TNFAIP8L3 (11732012_x_at) / RFU MBOAT4 (11741988_at) / Fold change /veh MBOAT4 (11741988_at) / RFU 11764193_at / Fold change /veh 11764193_at / RFU TMEM53 (11763286_at) / Fold change /veh TMEM53 (11763286_at) / RFU MAGEB2 (11727129_at) / Fold change /veh MAGEB2 (11727129_at) / RFU TMEM200A (11744735_a_at) / Fold change /veh TMEM200A (11744735_a_at) / RFU CCDC152 (11751479_a_at) / Fold change /veh CCDC152 (11751479_a_at) / RFU FAM211A (11726209_a_at) / Fold change /veh FAM211A (11726209_a_at) / RFU RGS16 (11746705_a_at) / Fold change /veh RGS16 (11746705_a_at) / RFU VCAN (11755009_s_at) / Fold change /veh VCAN (11755009_s_at) / RFU RHOB (11743442_s_at) / Fold change /veh RHOB (11743442_s_at) / RFU RGS16 (11720943_a_at) / Fold change /veh RGS16 (11720943_a_at) / RFU RGS16 (11720944_at) / Fold change /veh RGS16 (11720944_at) / RFU, VPS4B / Fold change vs veh, VPS4B / RFU, CREB1 / Fold change vs veh, CREB1 / RFU, DNAJC13 / Fold change vs veh, DNAJC13 / RFU, GNAQ / Fold change vs veh, GNAQ / RFU, CDK5R1 / Fold change vs veh, CDK5R1 / RFU, ZRANB3 / Fold change vs veh, ZRANB3 / RFU, CUL4A / Fold change vs veh, CUL4A / RFU, CCNY / Fold change vs veh, CCNY / RFU, UFL1 / Fold change vs veh, UFL1 / RFU, COG3 / Fold change vs veh, COG3 / RFU, DIAPH2 / Fold change vs veh, DIAPH2 / RFU, SKA2 / Fold change vs veh, SKA2 / RFU, AFF3 / Fold change vs veh, AFF3 / RFU, LMF1 / Fold change vs veh, LMF1 / RFU, IPO11 / Fold change vs veh, IPO11 / RFU, DFFB / Fold change vs veh, DFFB / RFU, FOXP1 / Fold change vs veh, FOXP1 / RFU, CARD8 / Fold change vs veh, CARD8 / RFU, STRN3 / Fold change vs veh, STRN3 / RFU, ADK / Fold change vs veh, ADK / RFU, RASSF2 / Fold change vs veh, RASSF2 / RFU, WIPF1 / Fold change vs veh, WIPF1 / RFU, LARP1B / Fold change vs veh, LARP1B / RFU, RASA1 / Fold change vs veh, RASA1 / RFU, RB1 / Fold change vs veh, RB1 / RFU, PPFIA1 / Fold change vs veh, PPFIA1 / RFU, MAT2A / Fold change vs veh, MAT2A / RFU, CCT5 / Fold change vs veh, CCT5 / RFU, WDR92 / Fold change vs veh, WDR92 / RFU, CUX1 / Fold change vs veh, CUX1 / RFU, TTC7A / Fold change vs veh, TTC7A / RFU, TMEM135 / Fold change vs veh, TMEM135 / RFU, DEPTOR / Fold change vs veh, DEPTOR / RFU, CPM / Fold change vs veh, CPM / RFU, DNAJB6 / Fold change vs veh, DNAJB6 / RFU, CACNA2D3 / Fold change vs veh, CACNA2D3 / RFU, DTX4 / Fold change vs veh, DTX4 / RFU, TFCP2 / Fold change vs veh, TFCP2 / RFU, GMCL1 /// GMCL1P1 / Fold change vs veh, GMCL1 /// GMCL1P1 / RFU, AEBP2 / Fold change vs veh, AEBP2 / RFU, SNHG1 /// SNORD22 /// SNORD25 /// SNORD26 /// SNORD27 /// SNORD28 /// SNORD29 /// SNORD31 / Fold change vs veh, SNHG1 /// SNORD22 /// SNORD25 /// SNORD26 /// SNORD27 /// SNORD28 /// SNORD29 /// SNORD31 / Fold change (Aza/veh), C12orf56 (ProbeSet 11735607_a_at) / Fold change (ACY-1035/veh), C12orf56 (ProbeSet 11735607_a_at) / Fold change (Aza/veh), FGFR1OP (ProbeSet 11751329_s_at) / Fold change (ACY-1035/veh), FGFR1OP (ProbeSet 11751329_s_at) / Fold change (Aza/veh), VPS36 (ProbeSet 11739960_a_at) / Fold change (ACY-1035/veh), VPS36 (ProbeSet 11739960_a_at) / RFU SYPL1 (11715823_x_at) / Fold change /veh SYPL1 (11715823_x_at) / RFU IGFBP7 (11715501_s_at) / Fold change /veh IGFBP7 (11715501_s_at) / RFU REEP3 (11722064_at) / Fold change /veh REEP3 (11722064_at) / RFU IGLL1 (11728026_x_at) / Fold change /veh IGLL1 (11728026_x_at): dose or concentration left out as unconfirmed
Conditions: MV-4-11 cells, 48 hours

Q: For Nc1ccc(-c2cccs2)cc1NC(=O)c1ccc2c(c1)cc(C1CC1)n2CCN1CCOCC1 [ACY-1035], which “RFU C10orf10 (11716522_x_at)” value is on record?
A: The value was 43.57 RFU.
